Assay results: US9023813B2 (Nutek Pharma Ltd., priority 2012, dated 2015)
Where “and” joins values, the source holds several entries; their conditions need not be identical. Identical values can stand only once. Entries after “also recorded” stand apart in the source; their conditions may differ.

Columns and labels:
[1] = Pharmacokinetics: plasma concentrations of prodrug and propofol after intravenous infusion (LC/MS/MS); details: for Mean concentration of prodrug and propofol in rat plasma after intravenous infusion administration / AUCinf / MRTinf / AUClast / CLp / Vdss / Cmax / Tmax / t1/2: analyte = administered compound; for Mean Concentration of Propofol in Rat Plasma After Intravenous Administration: analyte = propofol released from the administered compound; for Pro-drug behaviour (release of propofol in vivo): rats, releasing the propofol in a matter of minutes after infusion; for AUCinf / MRTinf: extrapolated to infinity; for AUClast: to last detected concentration; for CLp: total body clearance, dose/AUCinf; for Vdss: volume of distribution; for Cmax / Tmax / t1/2: rat plasma, IV infusion
Procedure: (§1) Blood samples were to be taken pre-dose, during dose and post dose at designated intervals, with the blood quickly processed and stored at −70° C. until analysis.
(§2) Formulations were prepared on the morning of the dosing day and each was passed through a 0.22 μm filter prior to being administered to animals. A standard dose of 0.168 mmol/Kg per analog was administered to each of the rats. […] Analog stability in the formulations was verified by preparing each formulation and harvesting 200 μL aliquots at 0, 1, 2 and 8 hr while standing at room temperature. After harvesting, each sample was immediately frozen in dry ice until analysis; concentrations of test compounds in the samples were examined by HPLC-UV.
(§3) The animals were surgically prepared with indwelling cannula, double cannulation in carotid artery and jugular vein for i.v. infusion. The anesthetic pentobarbital was used during the surgery, and the animals were allowed to recover 3-5 days after surgery before the formulation was dosed. The dose formulation was administered intravenously via the jugular vein cannula. The 16.8 μmol/mL formulation was administered i.v. at a rate of 1 mL/Kg/min for 10 min.
Approximately 0.20 mL blood was collected at each designated time point from carotid artery via a catheter. A total of 12 plasma samples were taken from each animal: 1 pre-dose; 2 during the dose (5 into the 10 min infusion and one just prior termination of the 10 min infusion) and 9 post-infusion at 2, 5, 15, 30 min and 1, 2, 3, 4, and 6 hr post-dose. All blood samples were transferred into plastic microcentrifuge tubes containing 5 μL of K2-EDTA (0.5M) as anti-coagulant and placed on ice until processed for plasma. Blood samples were processed for plasma by centrifugation at approximately 5° C. Plasma samples were then stored in 1.5 mL tubes, quick frozen over dry ice and kept at −70±10° C. until LC/MSMS analysis.
For each, a minimum of 6 standard point curve runs in duplicates, and minimum of 5 standards were back calculated to within ±20% of their nominal concentrations. The LLOQ of each test article in plasma was established and 6 QC samples were included in assay runs of samples to ensure assay performance.
Data Analysis. Plasma concentration versus time data was analyzed by non-compartmental approaches using the WinNonlin software program (version 5.2, Pharsight, Mountain View, Calif.) and the pharmacokinetic parameters T½, CL, Vss, AUC(0-t), AUC(0-inf), MRT, and graphs of plasma concentration versus time calculated for each.

[2] = Solubility determination in D2O by 1H NMR with DSS internal standard; details: for solubility: D2O, water, thermodynamic from solid
Procedure: Thus the soapy-like solutions obtained were diluted until opalescent and diluted further until the opalescence visually disappeared.

[3] = system: male Sprague Dawley rats; test: Clinical observations of rats during administration of propofol analogs in the pharmacokinetics study
Procedure: as §1, §2, §3

[4] = time post-10 min i.v. infusion, 0.168 mmol/Kg
[5] = individual rats, post-10 min infusion, vehicle 10% Tween80

Compound	Mean concentration of prodrug and propofol in rat plasma after intravenous infusion administration ([1]; Time (h) 0)	Mean concentration of prodrug and propofol in rat plasma after intravenous infusion administration ([1]; Time (h) 0.083)	Mean concentration of prodrug and propofol in rat plasma after intravenous infusion administration ([1]; Time (h) 0.167)	Mean concentration of prodrug and propofol in rat plasma after intravenous infusion administration ([1]; Time (h) 0.2)	Mean concentration of prodrug and propofol in rat plasma after intravenous infusion administration ([1]; Time (h) 0.25)	Mean concentration of prodrug and propofol in rat plasma after intravenous infusion administration ([1]; Time (h) 0.417)	Mean concentration of prodrug and propofol in rat plasma after intravenous infusion administration ([1]; Time (h) 0.667)	Mean concentration of prodrug and propofol in rat plasma after intravenous infusion administration ([1]; Time (h) 1.166)	Mean concentration of prodrug and propofol in rat plasma after intravenous infusion administration ([1]; Time (h) 2.166)	Mean concentration of prodrug and propofol in rat plasma after intravenous infusion administration ([1]; Time (h) 3.166)	Mean concentration of prodrug and propofol in rat plasma after intravenous infusion administration ([1]; Time (h) 4.166)	Mean concentration of prodrug and propofol in rat plasma after intravenous infusion administration ([1]; Time (h) 6.166)	Mean Concentration of Propofol in Rat Plasma After Intravenous Administration ([1]; Time (h) 0)	Pro-drug behaviour (release of propofol in vivo) [1]	Relative solubility [2]	Rats recovered at [3, 4]	AUCinf [1] [µM·h]	MRTinf [1] [min]	AUClast [1] [µM·h]	CLp [1] [L/h/kg]	also measured
CC(C)c1cccc(C(C)C)c1OC(=O)OCCO[C@@H]1O[C@H](CO)[C@@H](O)[C@H](O)[C@H]1O [Compound 9]	BQL	BQL	BQL	BQL	BQL	BQL	BQL	BQL	BQL	BQL	BQL	BQL	BQL	very efficient pro-drugs	8.6	recovered at about 30 min					
CC(C)c1cccc(C(C)C)c1OC(=O)OCCCO[C@@H]1O[C@H](CO)[C@@H](O)[C@H](O)[C@H]1O [Compound 12]	BQL	0.00411 µM	0.00678 µM	BQL	BQL	BQL	BQL	BQL	BQL	BQL	BQL	BQL	BQL	very efficient pro-drugs	5.0	recovered at about 30 min	0.00122	6	0.000773		Mean Concentration of Propofol in Rat Plasma After Intravenous Administration ([1]; Time (h) 4.166): BQL; Mean Concentration of Propofol in Rat Plasma After Intravenous Administration ([1]; Time (h) 6.166): BQL
CC(C)c1cccc(C(C)C)c1OC(=O)NCCO[C@@H]1O[C@H](CO)[C@@H](O)[C@H](O)[C@H]1O [Compound 17]	BQL	178.796 µM	312.678 µM	152.206 µM	119.535 µM	35.206 µM	19.837 µM	8.012 µM	2.083 µM	0.3907 µM	0.0825 µM	0.0106 µM	BQL				71.764	16.6	61.644	2.35	Vdss [1]: 0.657 L/kg; Mean Concentration of Propofol in Rat Plasma After Intravenous Administration ([1]; Time (h) 2.166): BQL; Mean Concentration of Propofol in Rat Plasma After Intravenous Administration ([1]; Time (h) 3.166): BQL; Mean Concentration of Propofol in Rat Plasma After Intravenous Administration ([1]; Time (h) 4.166): BQL; Mean Concentration of Propofol in Rat Plasma After Intravenous Administration ([1]; Time (h) 6.166): BQL; Water solubility (qualitative) ([2]; reason for cosolvent): poor; Rat died at infusion of ([3]; Additional Rat 4, during infusion, vehicle 10% Tween80): infusion of 8 min.; Rat died at ([3]; Rat 3, post-10 min infusion, vehicle 10% Tween80): 1.5 h; Overall outcome in rats ([3]; in its vehicle (10% tween80 cosolvent)): poor results; Rat died at [3, 5]: died at 15 min. and 40 min; Rat recovered (from breathlessness) at [3, 5]: recovered at 10 min.; died at; Cause of death ([3]; individual rats, vehicle 10% Tween80): blood hemolysis; also recorded: hematuria
CC(C)c1cccc(C(C)C)c1OC(=O)OCCO[C@@H]1O[C@H](CO)[C@@H](OC2O[C@H](CO)[C@@H](O)[C@H](O)[C@H]2O)[C@H](O)[C@H]1O (stereo partly drawn) [Compound 24]	BQL	3.2 µM	7.74 µM	1.029 µM	0.751 µM	0.036 µM	0.0112 µM	0.00301 µM	BQL	0.0042 µM	BQL	BQL	BQL	very efficient pro-drugs	>20	recovered at about 30 min	0.791	12.4	0.786	348.2	Cmax [1]: 8.1 µM; Tmax [1]: 8.4 min; t1/2 [1]: 53.2 min; Vdss [1]: 120 L/kg; solubility [2]: > 20 mM
CC(C)c1cccc(C(C)C)c1OC(=O)OCCCO[C@@H]1O[C@H](CO)[C@@H](OC2O[C@H](CO)[C@@H](O)[C@H](O)[C@H]2O)[C@H](O)[C@H]1O (stereo partly drawn) [Compound 25]	BQL	34.401 µM	68.36 µM	22.658 µM	9.074 µM	0.997 µM	0.0971 µM	0.0162 µM	0.00209 µM	BQL	BQL	BQL	BQL	very efficient pro-drugs	>20	recovered at about 35 min	8.574	4.62	8.571	20.2	Cmax [1]: 68.4 µM; Tmax [1]: 10.2 min; t1/2 [1]: 15.2 min; Vdss [1]: 1.51 L/kg; solubility [2]: > 20 mM; Rats soporous at [3, 4]: Rats soporous at about 7 min and
